From publication PMC10037499, “High-Throughput Screen Reveals the Structure–Activity Relationship of the Antimicrobial Lasso Peptide Ubonodin” (ACS Central Science, 2023)
Where a SMILES comes first, the peptide text is derived from it.

Legend:
E. coli MC1061 = assay: Spot dilution assay of E. coli producing the ubonodin variant from pUboABC; type: cell-based; details: variant in pUboABC backbone in E. coli MC1061, induction with 100 μM IPTG, ten-fold serial dilutions, biological duplicates
Description: Cultures of E. coli MC1061 transformed with the appropriate plasmids were grown. Aliquots of the cultures were sampled prior to and after induction with 100 μM IPTG, and 10-fold serial dilutions were plated. […]
All cloning was conducted by PCR amplification (using Q5 polymerase), restriction digestion, ligation, (using T4 DNA ligase), and transformation into chemically competent E. coli XL1-Blue. All cloning with a pUboABC backbone was done by plating transformation mixt ures onto Lysogeny Broth (LB) plates supplemented with 100 μg/mL ampicillin and 0.2% w/v glucose, and colonies were inoculated into LB media supplemented with 100 μ g/mL ampicillin and 0.2% w/v glucose to suppress any leaky expression. Cloning for all other plasmid constructs was done by plating transformation mixtures onto Lysogeny Broth (LB) plates supplemented with 100 μ g/ m L ampicillin, and colonies were inoculated into LB media supplemented with 100 μ g/ m L ampicillin.
Plasmids were extracted using Qiagen QIAprep Spin Miniprep Kit and sequence verified using Sanger sequencing. All primer sequences are listed in Table S7, and all plasmid constructs are […]
pUboABC was cloned by amplifying pWC99 with pQE-80 NheI For and pAT8 Nco I Rev.
The amplicon was ligated into pWC99 digested with Nhe I and Nco I. pUboBC was cloned by digesting pUboABC with Nh e I and Nco I and ligating that fragment into pQE-80 digested with Nhe I and Nco I. pUboABC S5H I16P and pUboABCD S5H I16P were cloned with overlap PCR using pWC99 as the template. One fragment was amplified with pQE-80 EcoRI For and S5H I16P Rev v2 and the second fragment was amplified with S5H I16P For v2 and pQE-80 HindII I Rev. […]
All remaining plasmid constructs were cloned with overlap PCR. One fragment was amplified with Xho I For Lib and a mutagenic reverse primer and the second fragment was amplified with NheI Rev Lib and a mutagenic forward primer. The templates and mutagenic […]
The fragments were joined with a second round of PCR and amplified with XhoI For Lib and NheI Rev Lib. Amplicons were ligated into the appropriate plasmid backbone digested with Xho I and Nhe I-HF. The plasmid backbones […]
The appropriate plasmid was transformed into electrocompetent E. coli MC1061, plated onto LB plates supplemented with 100 μ g/ m L ampicillin and 0.2% w/v glucose, and incubated at 30 °C for 16 hours. Colonies were inoculated into LB media supplemented with 100 μ g/ m L ampicillin and 0.2% w/v glucose and grown at 37 °C for 16 hours. These cultures were sub-cultured to an OD600 of 0.02 in 50 mL of LB media supplemented with 100 μg/mL ampicillin in a 250 mL flask. Once the OD600 reached 0.3, a 1 mL aliquot was sampled immediately prior to inducing the cultures with 100 μM isopropyl β-D-1-thiogalactopyranoside (IPTG). The aliquot was washed with Phosphate-Buffered Saline (PBS) two times and ten-fold serial dilutions were spotted onto LB plates supplemented with 100 μ g/ m L ampicillin and 0.2% w/v glucose. For each following timepoint, a 1 mL sample of each culture was withdrawn, washed with PBS two times, and ten- […]
fold serial dilutions were spotted onto LB plates supplemented with 100 μ g/m L ampicillin and 0.2% w/v glucose. Plates were incubated for 16 hours at 37 °C before imaging. […]
250 mL flask. Ten-fold serial dilutions of the culture were plated onto LB plates supplemented with 100 μ g/ m L ampicillin and 0.2% w/v glucose. The cultures were then grown at 37 °C, and once the OD600 reached 0.3, a 1 mL sample of the culture was withdrawn immediately before the cultures were induced with 10 μM or 100 μM IPTG and returned to grow longer. […]
All plates were incubated at 37 °C for 16 hours, after which the number of colonies was counted. Three biological replicates of this assay were done.
Co-Culture of E. coli MC1061 pUboABC and E. coli MC1061 pUboBC pUboABC (0.9 ng) and pUboBC (0.1 ng) were transformed into electrocompetent E. coli MC1061 with a one- hour outgrowth at 37 °C in LB media supplemented with 0.2% w/v glucose. […]

B. cenocepacia AU0756 = system: B. cenocepacia AU0756
Description: We proceeded to test the antimicrobial activity of the selected variants against two clinical isolates of the Bcc, B. cenocepacia AU0756 and B. cenocepacia AU24362, in broth microdilution assays. […] We revisited these measurements using broth microdilution assays following the Clinical & Laboratory Standards Institute (CLSI) standard.
Broth microdilution assays of the ubonodin variants were conducted using B. cenocepacia AU0756 and B. cenocepacia AU24362 with guidelines provided by the Clinical & Laboratory Standards Institute (CLSI).

[1] = system: RNA polymerase (RNAP) in E. coli MC1061; assay: High-throughput growth-based screen with NGS (enrichment value) for RNA polymerase inhibition; type: cell-based; parameters: key to Experimental observation (enrichment observed in the screen): Dropout: Many variants inhibit RNAP so strongly that they cannot be detected by NGS after IPTG induction (referred to as dropout variants); details: Table S4; variants whose MICs were tested
Description: The single mutant library was analyzed by NGS at multiple stages of sample preparation (Figure 2A) to track its evolution throughout the screen. Specifically, the frequency of each possible aa variant was computed at each stage by summing up counts for each distinct translated sequence and dividing by the total number of counts for all variants (eq S1, SI Methods). Since cells expressing an RNAP-inhibiting ubonodin variant will have growth defects relative to cells with a nontoxic variant, RNAP-inhibiting ubonodin variants are expected to decrease in frequency throughout the screen.
First, the naïve library (digested PCR products) was sequenced. These digested PCR products were cloned into the pUboABC backbone and transformed into a recA^– cloning strain. This plasmid library was sequenced again to capture any changes upon transformation of the library into E. coli. The change between the naïve library and the cloning transformation library was minimal (Figure S6A). This plasmid library was transformed into the screening strain MC1061, and the plasmid from resulting colonies was also sequenced. The library in MC1061 was grown up en masse in liquid culture to mid log phase, and a portion of the culture was plated. These colonies were scraped, then the plasmid was isolated and sequenced. Finally, the liquid culture was induced with IPTG, after which a portion of the culture was plated and the plasmid was isolated and sequenced. It is key to note that all samples from liquid cultures were plated prior to sequencing to ensure that only viable cells were sequenced. […] The rationale for sequencing at these five different stages was the possibility that leaky expression of uboA would affect the frequency of active mutants prior to IPTG induction. Indeed, we observed that the frequency of some uboA mutants dropped as soon as they were transformed into the screening strain MC1061 while the frequency of other mutants climbed (Figure 2B).
The behavior of the point variants (i.e., variants with a single aa substitution) was examined by calculating their enrichment values, the base-2 logarithm of the ratio of the variant’s frequency at a specific step of the screen to the variant’s frequency in the cloning transformation library (eq S3, Figure S6). The most relevant enrichment value for ubonodin activity is the comparison between the post-IPTG library and the cloning transformation library (Figure 2A). […] Many variants inhibit RNAP so strongly that they cannot be detected by NGS after IPTG induction (referred to as dropout variants). […] Variants with a stop codon mutation and variants containing an aa substitution at Tyr9 or Tyr27 (positions conserved in MccJ25 and shown to be crucial for RNAP inhibition, see Figure S7)[26] have positive enrichment values (1.2–1.7), serving as quality control for the screen (Figure 3A). Strikingly, 63% of point variants decreased in frequency, indicating a high tolerance to aa substitution. […] The positions with active variants are Asn11 through Ser24 in the loop and Asp3, Ser5, and Ala7 in the ring.
The single mutant and double mutant libraries were transformed into E. coli MC1061. Colonies were resuspended in media and subcultured into a larger culture. Aliquots of the cultures were sampled prior to and after induction with 10 μM IPTG and 100 μM IPTG and plated. After 16 h of incubation, the colonies were resuspended in media and plasmids were miniprepped.
Samples were PCR amplified with barcoded primers and combined such that double mutant library samples were over-represented compared to single mutant library samples to provide sufficient coverage of the larger double mutant library. Samples were sequenced using an Illumina MiSeq Micro 300nt and an Illumina NovaSeq 6000 Sequencing System. Downstream analysis of the data was conducted with Python, MATLAB, and R.
V to reduce genomic DNA contamination. One fragment was amplified with Xho I For Lib and a […]

In the case of `CC[C@H](C)[C@@H]1NC(=O)[C@H](CO)NC(=O)CNC(=O)[C@H](CC(=O)O)NC(=O)CNC(=O)CNC(=O)CC[C@@H](C(=O)N[C@@H](Cc2ccc(O)cc2)C(=O)N[C@@H](Cc2ccccc2)C(=O)N[C@@H](CC(N)=O)C(=O)N[C@@H](CCCNC(=N)N)C(=O)N2CCC[C@H]2C(=O)N[C@@H](CCSC)C(=O)N[C@@H](Cc2c[nH]cn2)C(=O)N[C@@H](CCC(=O)O)C(=O)N[C@@H](Cc2c[nH]cn2)C(=O)N[C@@H](CC(=O)O)C(=O)N[C@@H](Cc2c[nH]c3ccccc23)C(=O)N[C@@H](CCC(N)=O)C(=O)N[C@H](C(=O)N[C@@H](CCSC)C(=O)N[C@@H](CC(=O)O)C(=O)N[C@@H](CO)C(=O)NCC(=O)N[C@@H](Cc2ccc(O)cc2)C(=O)N[C@@H](Cc2ccc(O)cc2)C(=O)NCC(=O)O)[C@@H](C)CC)NC(=O)[C@H](C)NC1=O` [I16E] (HELM PEPTIDE1{G.G.D.G.S.I.A.E.Y.F.N.R.P.M.H.E.H.D.W.Q.I.M.D.S.G.Y.Y.G}$PEPTIDE1,PEPTIDE1,1:R1-8:R3$$$V2.0), the “Inhibits Growth” value (E. coli MC1061) is reported as “Yes”, the “B. cenocepacia AU0756 MIC” value (B. cenocepacia AU0756) is reported as 0.5 to 1 µM and the “Experimental observation (enrichment observed in the screen)” value (shortened to “Experimental observation”) [1] is reported as -7.5.
For `CC[C@H](C)[C@@H]1NC(=O)[C@H](CO)NC(=O)CNC(=O)[C@H](CC(=O)O)NC(=O)CNC(=O)CNC(=O)CC[C@@H](C(=O)N[C@@H](Cc2ccc(O)cc2)C(=O)N[C@@H](Cc2ccccc2)C(=O)N[C@@H](CC(N)=O)C(=O)N[C@@H](CCCNC(=N)N)C(=O)N2CCC[C@H]2C(=O)N[C@@H](CC(N)=O)C(=O)N[C@@H](Cc2c[nH]cn2)C(=O)N[C@H](C(=O)N[C@@H](Cc2c[nH]cn2)C(=O)N[C@@H](CC(=O)O)C(=O)N[C@@H](Cc2c[nH]c3ccccc23)C(=O)N[C@@H](CCC(N)=O)C(=O)N[C@H](C(=O)N[C@@H](CCSC)C(=O)N[C@@H](CC(=O)O)C(=O)N[C@@H](CO)C(=O)NCC(=O)N[C@@H](Cc2ccc(O)cc2)C(=O)N[C@@H](Cc2ccc(O)cc2)C(=O)NCC(=O)O)[C@@H](C)CC)[C@@H](C)CC)NC(=O)[C@H](C)NC1=O` [M14N] (HELM PEPTIDE1{G.G.D.G.S.I.A.E.Y.F.N.R.P.N.H.I.H.D.W.Q.I.M.D.S.G.Y.Y.G}$PEPTIDE1,PEPTIDE1,1:R1-8:R3$$$V2.0), the “Inhibits Growth” value (E. coli MC1061) was “Yes”, the “B. cenocepacia AU0756 MIC” value (B. cenocepacia AU0756) was 0.5 to 2 µM and the “Experimental observation” value [1] was -4.7.
For `CC[C@H](C)[C@@H]1NC(=O)[C@H](CO)NC(=O)CNC(=O)[C@H](CC(=O)O)NC(=O)CNC(=O)CNC(=O)CC[C@@H](C(=O)N[C@@H](Cc2ccc(O)cc2)C(=O)N[C@@H](Cc2ccccc2)C(=O)N[C@@H](CC(N)=O)C(=O)N[C@@H](Cc2ccccc2)C(=O)N2CCC[C@H]2C(=O)N[C@@H](CCSC)C(=O)N[C@@H](Cc2c[nH]cn2)C(=O)N[C@H](C(=O)N[C@@H](Cc2c[nH]cn2)C(=O)N[C@@H](CC(=O)O)C(=O)NCC(=O)N[C@@H](CCC(N)=O)C(=O)N[C@H](C(=O)N[C@@H](CCSC)C(=O)N[C@@H](CC(=O)O)C(=O)N[C@@H](CO)C(=O)NCC(=O)N[C@@H](Cc2ccc(O)cc2)C(=O)N[C@@H](Cc2ccc(O)cc2)C(=O)NCC(=O)O)[C@@H](C)CC)[C@@H](C)CC)NC(=O)[C@H](C)NC1=O` [R12F W19G] (HELM PEPTIDE1{G.G.D.G.S.I.A.E.Y.F.N.F.P.M.H.I.H.D.G.Q.I.M.D.S.G.Y.Y.G}$PEPTIDE1,PEPTIDE1,1:R1-8:R3$$$V2.0), the “Inhibits Growth” value (E. coli MC1061) was “Yes”, the “B. cenocepacia AU0756 MIC” value (B. cenocepacia AU0756) was greater than 8 µM and the “Experimental observation” value [1] was “Dropout”.
`CC[C@H](C)[C@@H]1NC(=O)[C@H](CO)NC(=O)CNC(=O)[C@H](CC(=O)O)NC(=O)CNC(=O)CNC(=O)CC[C@@H](C(=O)N[C@@H](Cc2ccc(O)cc2)C(=O)N[C@@H](Cc2ccccc2)C(=O)N[C@@H](CC(N)=O)C(=O)N[C@@H](Cc2ccccc2)C(=O)N2CCC[C@H]2C(=O)N[C@@H](CCSC)C(=O)N[C@@H](Cc2c[nH]cn2)C(=O)N[C@H](C(=O)N[C@@H](Cc2c[nH]cn2)C(=O)N[C@@H](CC(=O)O)C(=O)N[C@@H](Cc2c[nH]c3ccccc23)C(=O)N[C@@H](CCC(N)=O)C(=O)N[C@H](C(=O)N[C@@H](CCSC)C(=O)N[C@@H](CC(=O)O)C(=O)N[C@@H](CO)C(=O)NCC(=O)N[C@@H](Cc2ccc(O)cc2)C(=O)N[C@@H](Cc2ccc(O)cc2)C(=O)NCC(=O)O)[C@@H](C)CC)[C@@H](C)CC)NC(=O)[C@H](C)NC1=O` [R12F] (HELM PEPTIDE1{G.G.D.G.S.I.A.E.Y.F.N.F.P.M.H.I.H.D.W.Q.I.M.D.S.G.Y.Y.G}$PEPTIDE1,PEPTIDE1,1:R1-8:R3$$$V2.0) was tested, and the “Inhibits Growth” value (E. coli MC1061) was “Yes”, the “B. cenocepacia AU0756 MIC” value (B. cenocepacia AU0756) was 2 µM and the “Experimental observation” value [1] was -5.3.
